Laboratory results published in ChEMBL document CHEMBL2385074, “Structure-activity relationship analysis of bufadienolide-induced in vitro growth inhibitory effects on mouse and human cancer cells” (J Nat Prod, 2013).
Activity calls are given as the source filed them. The calls are words filed in the database; no cut-off is given here.

How the values were obtained:
B16-F10 [1] = assay: Cytotoxicity against mouse B16F10 cells after 3 days by MTT assay; type: functional, cell-based; settings: B16-F10, 72 h
[2] = Cytotoxicity against mouse CT26.WT cells after 3 days by MTT assay; type: functional, cell-based; settings: 72 h
SK-MEL-28 [3] = assay: Cytotoxicity against human SK-MEL-28 cells after 3 days by MTT assay; type: functional, cell-based; settings: SK-MEL-28, 72 h
[4] = Cytotoxicity against human U373 cells after 3 days by MTT assay; type: functional, cell-based, U-373MG ATCC; settings: U373 MG, 72 h
A549 [5] = assay: Cytotoxicity against human A549 cells after 3 days by MTT assay; type: functional, cell-based; settings: A549, 72 h
PC-3 [6] = assay: Cytotoxicity against human PC3 cells after 3 days by MTT assay; type: functional, cell-based; settings: PC-3, 72 h
MCF7 [7] = assay: Cytotoxicity against human MCF7 cells after 3 days by MTT assay; type: functional, cell-based; settings: MCF7, 72 h
[8] = Cytotoxicity against human Hs683 cells after 3 days by MTT assay; type: functional, cell-based; settings: Hs 683, 72 h
B16-F10 [9] = assay: Cytotoxicity against mouse B16F10 cells at <= 10 uM after 3 days by MTT assay; type: functional, cell-based
CT26.WT = assay: Cytotoxicity against mouse CT26.WT cells at <= 10 uM after 3 days by MTT assay; type: functional, cell-based
U-373MG ATCC = assay: Cytotoxicity against human U373 cells at <= 10 uM after 3 days by MTT assay; type: functional, cell-based
SK-MEL-28 [10] = assay: Cytotoxicity against human SK-MEL-28 cells at <= 10 uM after 3 days by MTT assay; type: functional, cell-based
A549 [11] = assay: Cytotoxicity against human A549 cells at <= 10 uM after 3 days by MTT assay; type: functional, cell-based
PC-3 [12] = assay: Cytotoxicity against human PC3 cells at <= 10 uM after 3 days by MTT assay; type: functional, cell-based
MCF7 [13] = assay: Cytotoxicity against human MCF7 cells at <= 10 uM after 3 days by MTT assay; type: functional, cell-based
Hs 683 = assay: Cytotoxicity against human Hs683 cells at <= 10 uM after 3 days by MTT assay; type: functional, cell-based

SMILES | IC50 (B16-F10 [1]) | IC50 [2] | IC50 (SK-MEL-28 [3]) | IC50 [4] | IC50 (A549 [5]) | IC50 (PC-3 [6]) | IC50 (MCF7 [7]) | IC50 [8] | Activity (B16-F10 [9]) | Activity (CT26.WT) | Activity (U-373MG ATCC) | Activity (SK-MEL-28 [10]) | Activity (A549 [11]) | Activity (PC-3 [12]) | Activity (MCF7 [13]) | Activity (Hs 683)
CC(=O)N[C@@H]1CC[C@@]2(C)[C@H](CC[C@@H]3[C@@H]2CC[C@]2(C)[C@@H](c4ccc(=O)oc4)[C@@H](OC(C)=O)[C@H]4O[C@]342)C1 | > 10000 nM | > 10000 nM | 3510 nM | 384 nM | 302 nM | 426 nM | 726 nM | 312 nM | – | – | – | – | – | – | – | –
CC(=O)OC[C@H]1CC[C@H]2[C@@H]3CC[C@@H]4C[C@@H](OC(C)=O)CC[C@]4(C)[C@H]3C(=O)[C@@H](OC(C)=O)[C@]12C | – | – | – | – | – | – | – | – | inactive | inactive | inactive | inactive | inactive | inactive | inactive | inactive
C[C@]12CC[C@H](O)C[C@H]1CC[C@@H]1C2=C(O)C(=O)[C@]2(C)[C@@H](c3ccc(=O)oc3)CC[C@]12O [ARGENTINOGENIN] | > 10000 nM | > 10000 nM | 70 nM | 86 nM | 53 nM | 43 nM | 36 nM | 9 nM | – | – | – | – | – | – | – | –
C[C@@H]1O[C@@H](O[C@H]2CC[C@]3(C=O)[C@H]4CC[C@]5(C)[C@@H](c6ccc(=O)oc6)CC[C@]5(O)[C@@H]4CC[C@]3(O)C2)[C@H](O)[C@H](O)[C@H]1O[C@@H]1O[C@H](CO)[C@@H](O)[C@H](O)[C@H]1O [HELLEBRIN] | > 10000 nM | > 10000 nM | 68 nM | 36 nM | 6 nM | 11 nM | 44 nM | 7 nM | – | – | – | – | – | – | – | –
CC(=O)O[C@H]1CC[C@@]2(C)[C@H](CC[C@@H]3[C@@H]2[C@H](OC(C)=O)C(=O)[C@]2(C)[C@@H](c4ccc(=O)oc4)CC[C@]32O)C1 | > 10000 nM | > 10000 nM | 7980 nM | 8810 nM | 5910 nM | > 10000 nM | 7260 nM | 2620 nM | – | – | – | – | – | – | – | –
COC(=O)[C@H]1CC[C@]2(OC=O)[C@@H]3CC[C@@H]4C[C@@H](OC(C)=O)CC[C@]4(C)[C@H]3[C@H](OC(C)=O)C(=O)[C@]12C | – | – | – | – | – | – | – | – | inactive | inactive | inactive | inactive | inactive | inactive | inactive | inactive
C[C@]12CCC(=O)C=C1CC[C@@H]1[C@@H]2CC[C@]2(C)[C@@H](c3ccc(=O)oc3)CC[C@]12O [SCILLARENONE] | > 10000 nM | > 10000 nM | 1610 nM | 399 nM | 333 nM | 284 nM | 341 nM | 73 nM | – | – | – | – | – | – | – | –
COC(=O)[C@H]1CC[C@]2(O)[C@@H]3CC[C@@H]4C[C@@H](OC(C)=O)CC[C@]4(C)[C@H]3[C@H](OC(C)=O)C[C@]12C | – | – | – | – | – | – | – | – | inactive | inactive | inactive | inactive | inactive | inactive | inactive | inactive
C[C@]12CC[C@H]3[C@@H](CC[C@H]4C[C@@H](O)CC[C@@]43C=O)[C@@]1(O)CC[C@@H]2c1ccc(=O)oc1 | > 10000 nM | > 10000 nM | 336 nM | 62 nM | 51 nM | 2430 nM | 278 nM | 40 nM | – | – | – | – | – | – | – | –
C[C@]12CC[C@H](O)C[C@H]1CC[C@@H]1[C@@H]2C(=O)[C@@H](O)[C@]2(C)[C@@H](c3ccc(=O)oc3)CC[C@]12O [BUFARENOGIN] | > 10000 nM | > 10000 nM | > 10000 nM | > 10000 nM | 3840 nM | 7420 nM | 9300 nM | 2680 nM | – | – | – | – | – | – | – | –
CC(=O)O[C@H]1CC[C@@]2(C=O)[C@H](CC[C@@H]3[C@@H]2CC[C@]2(C)[C@@H](c4ccc(=O)oc4)C[C@H]4O[C@]342)C1 | > 10000 nM | > 10000 nM | > 10000 nM | 7050 nM | 7140 nM | 5340 nM | > 10000 nM | 3660 nM | – | – | – | – | – | – | – | –
C[C@H]1O[C@@H](O[C@H]2[C@@H](O)C[C@H](O[C@H]3[C@@H](O)C[C@H](O[C@H]4CC[C@@]5(C)[C@H](CC[C@@H]6[C@@H]5C[C@@H](O)[C@]5(C)[C@@H](C7=CC(=O)OC7)CC[C@]65O)C4)O[C@@H]3C)O[C@@H]2C)C[C@H](O)[C@@H]1O [DIGOXIN] | > 10000 nM | > 10000 nM | 266 nM | 146 nM | 50 nM | 75 nM | 426 nM | 40 nM | – | – | – | – | – | – | – | –
COC(=O)[C@H]1[C@@H](O)[C@H]2O[C@]23[C@@H]2CC[C@@H]4C[C@@H](OC(C)=O)CC[C@]4(C)[C@H]2CC[C@]13C | – | – | – | – | – | – | – | – | inactive | inactive | inactive | inactive | inactive | inactive | inactive | inactive
CC(=O)O[C@H]1CC[C@@]2(C)[C@H](CC[C@@H]3[C@@H]2[C@H](OC(C)=O)C(=O)[C@]2(C)[C@@H]4CC[C@]32OC4=O)C1 | – | – | – | – | – | – | – | – | inactive | inactive | inactive | inactive | inactive | inactive | inactive | inactive
C[C@@H]1O[C@@H](O[C@H]2C[C@@H](O)[C@]3(CO)[C@H]4[C@H](O)C[C@]5(C)[C@@H](C6=CC(=O)OC6)CC[C@]5(O)[C@@H]4CC[C@]3(O)C2)[C@H](O)[C@H](O)[C@H]1O [OUABAIN] | > 10000 nM | > 10000 nM | 211 nM | 77 nM | 27 nM | 43 nM | 133 nM | 28 nM | – | – | – | – | – | – | – | –
C[C@@H]1O[C@@H](O[C@H]2CC[C@@]3(C)[C@H](CC[C@@H]4[C@@H]3[C@H](O)C[C@]3(C)[C@@H](c5ccc(=O)oc5)CC[C@]43O)C2)[C@H](O)[C@H](O)[C@H]1O | 659 nM | 877 nM | 5 nM | 3 nM | < 1 nM | < 1 nM | 8 nM | 2 nM | – | – | – | – | – | – | – | –
CC(=O)O[C@H]1C[C@]2(O)[C@@H]3CC[C@@H]4C[C@@H](O)CC[C@]4(C)[C@H]3CC[C@]2(C)[C@H]1c1ccc(=O)oc1 [BUFOTALIN] | > 10000 nM | > 10000 nM | 65 nM | 74 nM | 14 nM | 34 nM | 37 nM | 9 nM | – | – | – | – | – | – | – | –
C[C@]12CC[C@H](O)C[C@@H]1CC[C@@H]1[C@@H]2CC[C@]2(C)[C@@H](c3ccc(=O)oc3)CC[C@]12O | > 10000 nM | > 10000 nM | 463 nM | 362 nM | – | 67 nM | 428 nM | 21 nM | – | – | – | – | – | – | – | –
